System: pigmented filamentous callus of Eucheuma
Assay: Enhancement of somatic embryogenesis and micro-propagule production in embedded pigmented callus cultures by plant growth regulators
Assay type: cell-based, Eucheuma striatum (=Kappaphycus alvarezii)
Details: 23° C., one month
Source text: The production of micro-propagules clonally through somatic embryogenesis of pigmented callus has been established. The somatic embryogenesis and micro-propagule production may further be enhanced by subculturing thin section of pigmented filamentous callus blocks (2 mm×3 mm×2 mm) in 3 mm thick agar plates (0.3-0.6% agar) with PES medium as embedded cultures. The callus blocks implanted in an agar medium grew rapidly in one month and formed colored spots in an agar with abundantly growing branched filamentous pigmented callus. The newly regenerated filamentous callus from blocks eventually transformed to produce densely pigmented (dark brown colour) micro-colonies similar to somatic embryos in branches of some filaments. […] Transfer of such filamentous callus with somatic embryos from solid (agar plates) medium to liquid PES medium facilitated rapid growth and morphogenesis in micro-propagules.
The production of micro-propagules clonally through somatic embryogenesis of pigmented callus of Eucheuma has been carried out. The somatic embryogenesis and micro-propagule production may be enhanced by subculturing thin section of pigmented filamentous callus blocks (2 mm×3 mm×2 mm) in 3 mm thick agar plates (0.4% agar) with PES medium as embedded cultures at 23° C. under cool white fluorescent fights at 50 μmol photon m^−2s^−1 irradiance with a 12:12 light and dark cycle. […]

Row | Molecule | production of micro-propagules / formation of somatic embryos in pigmented filamentous callus (0.1 mg l-1 each of naphthalenacetic acid and 6-benzylaminopurine combined in 0.4% agar PES medium) | production of micro-propagules / formation of somatic embryos in pigmented filamentous callus (0.1, 1.0 mg l-1 naphthalenacetic acid alone in 0.4% agar PES medium)
1 | c1ccc(CNc2ncnc3nc[nH]c23)cc1 [6-benzylaminopurine] | further enhanced | –
2 | naphthalenacetic acid | – | further enhanced

From patent US6858430B1, “Process for cultivation of algae” (Council of Scientific and Industrial Research, priority 2000, dated 2005)
